Earlier results, collected in US20100204460A1, “NATURAL BRASSINOSTEROIDS FOR USE FOR TREATING HYPERPROLIFERATION, TREATING PROLIFERATIVE DISEASES AND REDUCING ADVERSE EFFECTS OF STEROID DYSFUNCTION IN MAMMALS, PHARMACEUTICAL COMPOSITION AND ITS USE” (priority 2007, published 2010).

Key:
Settings in all cases: cited from earlier work
[1] = tested on: herpes simplex virus type 1 (HSV-1)
arena viruses = tested on: arena viruses
measles virus (MV) = tested on: measles virus (MV)

Measured: in vitro antiviral activity

CC[C@@H](C(C)C)[C@@H](O)[C@H](O)[C@@H](C)[C@H]1CC[C@H]2[C@@H]3CC(=O)[C@H]4C[C@H](O)[C@H](O)C[C@]4(C)[C@H]3CC[C@]12C [Brassinosteroid 9, 28-Homocastasterone]
in vitro antiviral activity: all assays above
